The values below come from PMC3849007 (Journal of Experimental & Clinical Cancer Research : CR, 2013).

The test system of test [1] is h-Tel 5'-d[AGGG(TTAGGG)3]-3' (DNA, G4) AGGGTTAGGGTTAGGGTTAGGG
The test can be described thus: CD spectroscopy, induced anti-parallel structure. The conditions noted are these: no significant K+; 298 K; 3.5 molar equivalents of ligand; band at 290 nm emerges.

In test [2] the test system is duplex (D) DNA hairpin, 5'-biotin-CGA3T3C(CT)2GA3T3CG (DNA, hairpin) CGAAATTTCCTCTGAAATTTCG
The test can be described thus: surface plasmon resonance. The conditions noted are these: 200 mM KCl; 10 mM HEPES, 3 mM EDTA, 0.01% P20, pH 7.4. (In SPR one partner is held on a chip, and binding of the other changes the refractive index at the surface.)

For the next test, the system named is BJ-EHLT fibroblasts. The test can be described thus: Proliferation assay, transformed fibroblasts. It is filed as cell-based, human. Particulars: 0.5 μM, culture day 2 to 8. Here is the method:
BJ fibroblasts expressing hTERT (BJ-hTERT) or hTERT and SV40 early region (BJ-EHLT), were obtained as previously reported. Cells were grown in Dulbecco Modified Eagle Medium (D-MEM, Invitrogen Carlsbad, CA, USA) supplemented with 10% fetal calf serum, 2 mM L-glutamin and antibiotics.
5 × 10^4 cells were seeded in 60-mm Petri plates (Nunc, MasciaBrunelli, Milano, Italy) and 24 h after plating, 0.5 μM of freshly dissolved compound was added to the culture medium. Cell counts (Coulter Counter, Kontron Instruments, Milano, Italy) and viability (trypan blue dye exclusion) were determined daily, from day 2 to day 8 of culture.

Test [3] has as its target T1, human recombinant β2 adrenergic receptor (Homo sapiens, UniProt P07550).
T1 construct: expressed in transfected cells; host or cells: CHO
Description: β2-adrenergic receptor binding assay (CHO expressing cells). Here is the method:
For hERG study, HEK293 cells were cultured (1–7 days) in DMEM/GlutaMax-1 + 10% FBS and were plated on collagen-coated dishes (about 2×10^4 cells/dish). The cell was held at -80 mV. A 50-millisecond pulse to -40 mV was delivered to measure the leaking currents, which were subtracted from the tail currents online. […] This paradigm was delivered once every 5 seconds to monitor the current amplitude. After the current amplitude stabilized, the test compound was delivered to the extracellular medium by a rapid solution changer perfusion system. During perfusion, the cell was repetitively stimulated with the protocol described above, and the current amplitude was continuously monitored. Data were acquired and analyzed by using pClamp (Axon Instruments), and Excel (Microsoft), and are reported as mean and individual values. The degree of inhibition (%) was obtained by measuring the tail current amplitude before and after drug superfusion (the difference current was normalized to control and multiplied by 100 to obtain the percent of inhibition). […] The concentration-response relationship of each compound was constructed from the percentage reductions of current amplitude by sequential concentrations. β2-adrenergic receptor CHO expressing cells were used for the receptor inhibition assay as described. The results are expressed as a percent of inhibition of control specific binding (100 - (measured specific binding/control specific binding) × 100)) obtained in the presence of the test compounds. The specific ligand binding to the receptors is defined as the difference between the total binding and the nonspecific binding determined in the presence of an excess of unlabelled ligand. All the in-vivo experiments were carried out at the Regina Elena Cancer Institute.
Inhibition of receptor was reported as inhibition of control specific binding (100 - (measured specific binding/control specific binding) × 100) obtained in the presence of the test compounds.

The subject of test [4] is h-Tel quadruplex DNA 5′-d[AGGG(TTAGGG)3]-3′. The test can be described thus: Surface plasmon resonance, quadruplex DNA. Particulars: for Surface plasmon resonance K, Quadruplex (Q) DNA: 10 mM HEPES, 200 mM KCl, 3 mM EDTA, 0.01% P20, pH 7.4, equilibrium binding constant.
The subject of test [5] is h-Tel 5'-d[AGGG(TTAGGG)3]-3' (DNA, G4) AGGGTTAGGGTTAGGGTTAGGG
Description: CD melting at 290 nm. Particulars: 110 mM K+ (100 mM KCl, potassium phosphate), 10 mM potassium phosphate, pH 7.0, 4 μM DNA, 3.5 mol equiv. ligand.

Test [6] relates to h-Tel (anti-parallel) quadruplex. The test can be described thus: CD thermal unfolding of h-Tel quadruplex. The format is binding, human. The conditions noted are these: for CD study thermal stability ∆Tm: compared to h-Tel without bound ligand (Tm 70 ± 3); for CD study thermal stability Tm: h-Tel 4 μM with 3.5 mol.equiv. ligand, K+ solution, unfolding at 290 nm. Here is the method:
CD spectra were recorded on an Applied Photophysics Pi-Star-180 spectrophotometer (Applied Photophysics Ltd, Surrey, UK). The optical system was configured with a 75 W Xe lamp, circular light polarizer and end-mounted photomultiplier. The instrument had previously been calibrated with (D)-camphorsulfonic acid. Temperature was regulated using a Neslab RTE-300 circulating programmable water bath (Neslab Inc). CD spectra were recorded at 298 K in a 10 mm path length cell over a wavelength range of 215–345 nm in steps of either 1 0r 2 nm, with 3 nm entrance/exit slit widths: the number of counts was set to 10,000 with adaptive sampling set to 500,000. The spectra were corrected by subtracting the spectrum of the same buffer solution of 100 mM potassium chloride and 10 mM potassium phosphate at pH 7.0. Annealing and melting profiles were recorded using a thermoelectric temperature controller (Melcor) on 4 μM DNA samples with and without 3.5 mol.equiv. of ligands using 0.5 K temperature increments and a cooling or heating rate of 0.2 K/min over the temperature range 298-368 K.
This analysis was extended to examine the effects of ligand binding on thermal stability by measuring the unfolding curves at 290 nm of the complexes formed in K^+ solution, corresponding to the CD spectra shown in Figure 4a. Monitoring the thermal unfolding transition for h-Tel produces a sigmoidal unfolding curve with a transition mid-point Tm value of 72 ± 3°C (Figure 4c). All three ligands show significant effects in enhancing the stability of the quadruplex by shifting the Tm values to higher temperatures (∆Tm ~ 15-19°C compared to h-Tel without bound ligands) (Table 1).

Test [7] has as its system Telomere dysfunction Induced Foci in BJ-EHLT fibroblasts. The test can be described thus: TIF analysis (γH2AX/TRF1 co-localization). Particulars: 24 hrs; for number of TIFs per nucleus: mean. The format is cell-based, human. Here is the method: Cells were fixed in 2% formaldehyde and permeabilized in 0.25% Triton X100 in PBS for 5 min at room temperature. For immunolabeling, cells were incubated with primary antibody, then washed in PBS and incubated with the secondary antibodies. The following primary antibodies were used: pAb and mAb anti-TRF1 (Abcam Ltd.; Cambridge UK); mAb (Upstate, Lake Placid, NY) and pAb anti-γH2AX (Abcam). The following secondary antibody were used: TRITC conjugated Goat anti Rabbit, FITC conjugated Goat anti Mouse (Jackson ImmunoResearch Europe Ltd., Suffolk, UK). Fluorescence signals were recorded by using a Leica DMIRE2 microscope equipped with a Leica DFC 350FX camera and elaborated by a Leica FW4000 deconvolution software (Leica, Solms, Germany). This system permits to focus single planes inside the cell generating 3D high-resolution images. For quantitative analysis of γH2AX positivity, 200 cells on triplicate slices were scored. For TIF’s analysis, in each nucleus a single plane was analyzed and at least 50 nuclei per sample were scored.

T1 sequence (P07550 whole entry): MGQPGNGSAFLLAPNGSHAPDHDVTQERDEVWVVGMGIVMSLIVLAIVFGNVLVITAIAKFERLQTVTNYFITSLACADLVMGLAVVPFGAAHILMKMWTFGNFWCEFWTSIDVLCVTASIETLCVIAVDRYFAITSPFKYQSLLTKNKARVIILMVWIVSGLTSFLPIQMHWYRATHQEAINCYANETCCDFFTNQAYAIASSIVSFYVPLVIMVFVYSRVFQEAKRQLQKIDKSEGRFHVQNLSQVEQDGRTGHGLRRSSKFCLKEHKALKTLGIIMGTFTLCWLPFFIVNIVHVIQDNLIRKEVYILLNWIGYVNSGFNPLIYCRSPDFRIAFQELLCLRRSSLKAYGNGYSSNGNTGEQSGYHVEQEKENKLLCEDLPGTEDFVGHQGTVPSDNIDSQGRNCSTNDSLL

With `Cc1cc2c3c([n+](C)c4ccc(F)cc4c3c1)-c1cc(F)ccc1N2C` [Compound 1, 3,11-Difluoro-6,8,13-trimethyl-8H-quino[4,3,2-kl]acridinium metho-sulfate], in test [1], the binding result is recorded as “yes”. The K in test [2] is 600000 M⁻¹. The “day of maximum effect on cell proliferation” value in the test with BJ-EHLT fibroblasts was 6 days. Further, the inhibition at 1 µM in test [3] (1 μM, Cerep ExpresSProfile screen, read-out: % inhibition of ligand binding, β2 adrenergic receptor) is more than 95%. In test [3] (10 μM, inhibition of control specific binding, CHO cells, read-out: B2 adrenergic % inhib. (10 μM)), the inhibition at 10 µM was found to be 100%. The “Surface plasmon resonance K, Quadruplex (Q) DNA” value in test [4] is 8.3e+06 M⁻¹. Further, the “Ratio Q/D (SPR)” value in test [4] (quadruplex K / duplex K) is reported as 13.8. Moreover, the “∆Tm” value in test [5] (Tm 86 ± 3) was determined as 16 °C. Further, in test [6], the “CD study thermal stability ∆Tm” value came out at 16 °C and the “CD study thermal stability Tm” value is 86 ± 3 °C. Moreover, the “number of TIFs per nucleus” value in test [7] is recorded as “ca. eight”.
Consider `CC(=O)Nc1ccc2c(c1)c1cccc3c1c([n+]2C)-c1ccccc1N3C` [Compound 3, 3-acetylamino-8,13-dimethyl-8H-quino[4,3,2-kl]-acridinium iodide], for which the binding result in test [1] was “yes”. In test [2], this compound gave a K of 700000 M⁻¹. For the same compound, the “day of maximum effect on cell proliferation” value in the test with BJ-EHLT fibroblasts is given as “seven”. In test [3] (10 μM, inhibition of control specific binding, CHO cells), the “B2 adrenergic % inhib. (10 μM)” value is recorded as 29%. In addition, the “Surface plasmon resonance K, Quadruplex (Q) DNA” value in test [4] came out at 8e+06 M⁻¹. Further, the “∆Tm” value in test [5] (Tm 85 ± 3) turned out to be 15 °C. For the same compound, in test [6], the “CD study thermal stability ∆Tm” value was found to be 15 °C and the “CD study thermal stability Tm” value was 85 ± 3 °C. Also, in test [7] (cells with more than four γH2AX/TRF1 co-localizations), the “percentage of TIF-positive cells” value is listed as “significant but less pronounced effect”. Moreover, in test [7], the “number of TIFs per nucleus” value is recorded as “six”.
